The assay has as its system TNFα release from human peripheral blood mononuclear cells. Description: Inhibition of LPS-stimulated TNFα release from human peripheral blood mononuclear cells (TNFα screen, ELISA). Format: cell-based. The conditions noted are these: LPS-stimulated human PBMC, 18 hours incubation, TNFα in supernatant by ELISA. The protocol:
Venous blood is collected from healthy volunteers and the mononuclear cells purified by centrifugation through Histopaque (Ficoll) cushions. TNFα production from these cells is stimulated by addition of lipopolysaccharide. After 18 hours incubation in the presence of LPS, the cell supernatant is removed and the concentration of TNFα in the supernatant determined by ELISA.

One compound from patent US20090035313A1, “Compounds” (Pfizer Inc., priority 2003, published 2009) can be followed below.

What is called IC50 is the concentration that inhibits the measured activity by half. A lower IC50 goes with inhibition by little substance. Take `COc1ccc2cccnc2c1S(=O)(=O)N[C@H]1CC[C@@H](NC(=O)c2cccnc2OC2CCSCC2)CC1` [Example 29, Syn-N-[4-(7-methoxy-quinoline-8-sulfonylamino)-cyclohexyl]-2-(tetrahydro-thiopyran-4-yloxy)-nicotinamide]: the IC50 is 0.4 nM.
